The values below come from patent publication US20240002350A1, “PROTEIN AND LIPID THERAPEUTIC TARGETS” (UNIVERSITY OF PITTSBURGH-OF THE COMMONWEALTH SYSTEM OF …, priority 2020, published 2024).

Where two headings read alike, the source gives them in different places.

One test concerns 15LOX/PEBP1. Briefly: Potency of 15LOX/PEBP1 inhibitors with anti-ferroptotic effect (Table 1). Type of test: cell-based. From the text:
Development and testing of new compounds that inhibit 15LOX/PEBP1 complex activity. A combination of computational and experimental studies are used. […] Computer modeling considers specific features of organization of 15LOX/PEBP1 complexes and positioning of AA-PE as well as regio-specific oxygenation of AA-residues at 15th carbon. […] It has been shown that: i) binding interface of 15LOX in 15LOX/PEBP1 complex includes a helix on 15LOX (α2) and kinase binding epitope (D144, H145, R146) on PEBP1 (FIG. 8); and ii) interfacial interactions play a pivotal role in allosterically altering conformational dynamics of 15LOX in complex, and its substrate specificity. Analysis of change in access to catalytic site upon PEBP1 binding, using elastic network models indicates needed sites at 15LOX/PEBP1 binding interface. Dynamics simulations are also performed, for 15LOX alone and 15LOX/PEBP1 complex. An effective inhibitor, NCG-01, with in vivo activity has been indicated. Several other 15LOX/PEBP1 inhibitors with anti-ferroptotic effect (FIG. 9) have been identified. To test the effectiveness of compounds identified from the computational screen, RSL3 and mechanical stretch models with LDH and PI assays as a primary outcome are performed. The compounds that inhibit cell death by at least 50% are then evaluated for their effects on AA-PE and AA oxidation by 15LOX/PEBP1 complex and 15LOX alone, respectively, by LC-MS. Evaluation of the effect of compounds in suppressing AA-PE-OOH formation in cells upon proferroptotic stimuli is also performed.

In test [1] the test system is ferroptosis triggered by RSL3 (GPX4 inhibition) or Erastin (GSH depletion) in cells. Briefly: Suppression of ferroptosis triggered by RSL3 or Erastin in cells. Format: cell-based. The conditions noted are these: read-out: half maximal activity, suppression of ferroptosis. As to the method: (§1) FIGS. 7A-7C show 15LOX/[…] complex inhibitor, NCGC00599973-01.
FER.1 (500 nM) is positive control. Insert: Chemical formula of two of the compounds.
(§2) It was established that a change in substrate specificity of 15LOX is achieved upon complex formation with PEBP1 whereby structural rearrangements are mainly responsible for the selectivity and specificity leading to the formation of 15-HOO-AA-PE as the oxidation product. Thus, new selective anti-ferroptotic inhibitors of 15LOX/PEBP1 complex were designed. These inhibitors should not interfere with oxidation of free AA, DPA, DHA. […] The compound is a poor inhibitor of 15LOX alone with free AA as a substrate. […] Site 1 is at 15LOX/PEBP1 binding interface (binding energy −10.1 kcal/mol) and site 2 is at catalytic site (binding energy −8.9 kcal/mol).

Another test has as its system 15LOX alone. Briefly: Inhibition of 15LOX alone with free AA as a substrate. Format: biochemical. The conditions noted are these: 20 μM.
Source text: as §2
(§3) Development and testing of new compounds that inhibit 15LOX/PEBP1 complex activity. A combination of computational and experimental studies are used. […] Computer modeling considers specific features of organization of 15LOX/PEBP1 complexes and positioning of AA-PE as well as regio-specific oxygenation of AA-residues at 15th carbon. […] The compounds that inhibit cell death by at least 50% are then evaluated for their effects on AA-PE and AA oxidation by 15LOX/PEBP1 complex and 15LOX alone, respectively, by LC-MS. […]

The subject of a further test is 15LOX/PEBP1 complex. Briefly: Inhibition of activity of 15LOX/PEBP1 complex. Format: biochemical.
Source text: as §2, §3

Another test has as its system HOO-AA-PE. The test is described as follows: RSL3-induced accumulation of pro-ferroptotic HOO-AA-PE in vitro. Type of test: cell-based.
Source text: as §1, §2

Test [2] concerns whole body irradiation (9.25Gy). The test is described as follows: Survival after whole body irradiation. The conditions noted are these: oxidant injury induced by ionizing radiation. Type of test: in vivo.
Source text: as §1, §2

For `Fc1cccc(-n2cc(-c3ccccc3)nc2SCc2ccc(C(F)(F)F)cc2)c1` [Compound 12, 1-(3-fluorophenyl)-4-phenyl-2-((4-(trifluoromethyl)benzyl)thio)-1H-imidazole], in the test on 15LOX/PEBP1, the Potency result is recorded as “++ (++ = 101-1000 nM)”. The figures for the EC50 in test [1] (ferroptosis triggered by Erastin (GSH depletion) in cells) and in test [1] (ferroptosis triggered by RSL3 (GPX4 inhibition) in cells) were 140 nM and 175 nM, respectively. The “inhibition of 15LOX alone” value in the test on 15LOX alone was ~4.5%. In addition, the “activity of 15LOX/PEBP1 complex” value in the test with 15LOX/PEBP1 complex is reported as “inhibits activity”. Besides, the “RSL3-induced accumulation of pro-ferroptotic HOO-AA-PE” value in the test on HOO-AA-PE is reported as “suppresses”. Moreover, the survival entry in test [2] is reported as “improves survival”.
